ChEMBL document CHEMBL1153865, “The metabolism of CYP2C9 and CYP2C19 for gliclazide by homology modeling and docking study” (Eur J Med Chem, 2009)

Experiments:
Format in all cases: ADME
[1] = biological target: T1, Cytochrome P450 2C19 (Homo sapiens, UniProt P33261); experiment: Inhibition of CYP2C19
[2] = biological target: T2, Cytochrome P450 2C9 (Homo sapiens, UniProt P11712); experiment: Inhibition of CYP2C9 assessed as decrease in catalytic reaction velocity at 200 uM by substrate-inhibition assay
[3] = biological target: T1, Cytochrome P450 2C19; experiment: Inhibition of CYP2C19 assessed as decrease in catalytic reaction velocity at 100 uM by substrate-inhibition assay
[4] = biological target: T2, Cytochrome P450 2C9; experiment: Activity at recombinant CYP2C9 by Michaelis-Menten method; conditions: recombinant enzyme
[5] = biological target: T1, Cytochrome P450 2C19; experiment: Activity at recombinant CYP2C19 by Michaelis-Menten method; conditions: recombinant enzyme

T2 sequence (P11712 whole entry): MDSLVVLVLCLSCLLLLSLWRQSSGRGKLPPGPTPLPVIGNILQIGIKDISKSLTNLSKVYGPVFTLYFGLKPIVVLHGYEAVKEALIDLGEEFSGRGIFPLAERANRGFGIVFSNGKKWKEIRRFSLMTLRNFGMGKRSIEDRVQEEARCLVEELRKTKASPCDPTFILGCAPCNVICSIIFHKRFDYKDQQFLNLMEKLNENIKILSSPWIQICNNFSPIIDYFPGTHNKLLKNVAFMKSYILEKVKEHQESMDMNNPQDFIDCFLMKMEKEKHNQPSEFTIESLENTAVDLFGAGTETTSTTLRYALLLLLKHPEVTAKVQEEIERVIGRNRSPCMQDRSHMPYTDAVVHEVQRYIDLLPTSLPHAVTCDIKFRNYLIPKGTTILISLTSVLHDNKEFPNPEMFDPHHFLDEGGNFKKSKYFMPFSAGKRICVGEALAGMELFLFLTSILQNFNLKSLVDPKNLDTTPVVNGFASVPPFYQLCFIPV
T1 sequence (P33261 whole entry): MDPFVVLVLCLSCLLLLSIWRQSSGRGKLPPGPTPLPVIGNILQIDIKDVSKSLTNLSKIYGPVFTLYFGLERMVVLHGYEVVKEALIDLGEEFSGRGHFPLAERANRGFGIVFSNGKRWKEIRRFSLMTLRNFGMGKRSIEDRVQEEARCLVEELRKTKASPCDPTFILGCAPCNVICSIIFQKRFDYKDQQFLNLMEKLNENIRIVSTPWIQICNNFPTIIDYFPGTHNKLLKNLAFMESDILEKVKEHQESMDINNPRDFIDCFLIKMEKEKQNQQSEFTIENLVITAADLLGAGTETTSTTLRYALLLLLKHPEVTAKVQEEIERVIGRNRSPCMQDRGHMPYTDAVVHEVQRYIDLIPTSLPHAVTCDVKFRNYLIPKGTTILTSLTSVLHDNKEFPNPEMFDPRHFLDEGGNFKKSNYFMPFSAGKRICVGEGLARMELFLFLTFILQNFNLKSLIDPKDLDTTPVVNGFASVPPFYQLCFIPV

SMILES	Ki [1] [µM]	inhibition (INH) [2]	inhibition (INH) [3]	Vmax [4] [pmol/min]	Vmax [5] [pmol/min]
CCC1(c2ccccc2)C(=O)NC(=O)N(Cc2ccccc2)C1=O (configuration not stated)	79	–	–	–	–
Cc1ccc(S(=O)(=O)NC(=O)NN2CC3CCCC3C2)cc1 (configuration not stated) [GLICLAZIDE]	–	Not Active	Not Active	–	–
Cc1ccc(S(=O)(=O)NC(=O)NN2C[C@@H]3CC[C@@H](O)[C@@H]3C2)cc1	–	–	–	0.6	14.9
O=C(NN1C[C@H]2CCC[C@H]2C1)NS(=O)(=O)c1ccc(CO)cc1 [METHYLHYDROXYLGLICLAZIDE]	–	–	–	0.6	12.1
